Results taken from PMC3950665, “Syn5 RNA polymerase synthesizes precise run-off RNA products” (Nucleic Acids Research, 2013).

Key:
[1] = target: T1, Syn5 RNA polymerase (Synechococcus phage Syn5, UniProt A4ZR96); assay: run-off transcription, agarose gel and RNA yield by A260; type: biochemical; details: ATP, GTP, NotI-linearized pET24-Syn5RNAP, 6 mM MgCl2, pH 8.0, no KCl, 24°C
T1 construct: gene 15; His-tagged, pET24 (NdeI/NotI), expressed in E. coli BL21(DE3); single-subunit
T1 sequence (A4ZR96 1-779): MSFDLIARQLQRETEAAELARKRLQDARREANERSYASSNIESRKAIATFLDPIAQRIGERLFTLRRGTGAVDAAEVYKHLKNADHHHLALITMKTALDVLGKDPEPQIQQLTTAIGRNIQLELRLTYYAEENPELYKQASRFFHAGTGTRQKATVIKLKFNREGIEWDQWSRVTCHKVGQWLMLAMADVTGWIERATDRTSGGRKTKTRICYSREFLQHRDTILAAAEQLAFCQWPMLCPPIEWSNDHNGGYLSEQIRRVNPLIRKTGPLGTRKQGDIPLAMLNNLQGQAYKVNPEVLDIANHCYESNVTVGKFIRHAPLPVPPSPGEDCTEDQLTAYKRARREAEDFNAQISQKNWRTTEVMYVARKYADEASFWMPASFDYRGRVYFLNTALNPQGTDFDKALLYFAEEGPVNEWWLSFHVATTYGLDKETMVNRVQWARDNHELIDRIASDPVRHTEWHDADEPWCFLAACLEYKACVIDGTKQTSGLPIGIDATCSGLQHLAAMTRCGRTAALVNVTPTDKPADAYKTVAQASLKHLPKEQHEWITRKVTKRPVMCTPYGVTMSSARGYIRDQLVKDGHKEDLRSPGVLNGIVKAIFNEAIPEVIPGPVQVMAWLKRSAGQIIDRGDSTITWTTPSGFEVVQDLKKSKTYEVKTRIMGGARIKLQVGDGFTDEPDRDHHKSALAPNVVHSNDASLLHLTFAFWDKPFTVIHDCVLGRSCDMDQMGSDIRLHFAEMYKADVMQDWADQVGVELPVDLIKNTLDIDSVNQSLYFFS

[2] = target: T2, T7 RNA polymerase (Escherichia phage T7, UniProt P00573); assay: as above; type: biochemical; details: ATP, GTP, NotI-linearized pET24-Syn5RNAP, 6 mM MgCl2, pH 8.0, no KCl, 37°C
T2 construct: gene 1
T2 sequence (P00573 whole entry): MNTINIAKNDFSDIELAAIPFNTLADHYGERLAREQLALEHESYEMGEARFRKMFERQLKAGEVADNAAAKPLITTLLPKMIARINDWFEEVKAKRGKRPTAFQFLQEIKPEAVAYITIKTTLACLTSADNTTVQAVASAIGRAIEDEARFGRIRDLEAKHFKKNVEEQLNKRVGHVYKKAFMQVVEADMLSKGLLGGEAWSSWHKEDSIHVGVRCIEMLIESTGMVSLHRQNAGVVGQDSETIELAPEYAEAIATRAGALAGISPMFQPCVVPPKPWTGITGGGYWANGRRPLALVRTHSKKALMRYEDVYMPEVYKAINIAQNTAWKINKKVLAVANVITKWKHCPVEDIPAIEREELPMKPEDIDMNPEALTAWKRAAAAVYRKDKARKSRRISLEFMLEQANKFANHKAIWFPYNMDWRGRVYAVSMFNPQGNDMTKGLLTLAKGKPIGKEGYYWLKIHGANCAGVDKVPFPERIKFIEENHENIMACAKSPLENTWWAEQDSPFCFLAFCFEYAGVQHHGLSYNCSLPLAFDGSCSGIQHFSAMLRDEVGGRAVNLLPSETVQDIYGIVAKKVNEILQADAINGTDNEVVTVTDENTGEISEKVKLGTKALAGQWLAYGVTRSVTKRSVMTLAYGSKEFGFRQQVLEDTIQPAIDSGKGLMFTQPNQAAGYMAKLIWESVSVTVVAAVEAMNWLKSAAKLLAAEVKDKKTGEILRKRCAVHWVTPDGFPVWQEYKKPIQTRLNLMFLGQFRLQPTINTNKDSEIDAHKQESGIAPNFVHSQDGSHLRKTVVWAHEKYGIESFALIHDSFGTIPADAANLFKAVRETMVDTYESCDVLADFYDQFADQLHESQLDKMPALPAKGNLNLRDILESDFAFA

SMILES	run-off transcription, agarose gel and RNA yield by A260 ([1]; replaces CTP at 600 µM, UTP)	run-off transcription, agarose gel and RNA yield by A260 ([2]; replaces CTP at 600 µM, UTP)	run-off transcription, agarose gel and RNA yield by A260 ([1]; replaces UTP at 600 µM, CTP)	run-off transcription, agarose gel and RNA yield by A260 ([2]; replaces UTP at 600 µM, CTP)
Cc1cn([C@@H]2O[C@H](COP(=O)(O)OP(=O)(O)OP(=O)(O)O)[C@@H](O)[C@H]2O)c(=O)nc1N [5-methylcytidine-5′-triphosphate]	the efficiency by which Syn5 RNA polymerase incorporated 5mC and Ps-U	T7 RNA polymerase also incorporates 5mC and Ps-U at comparable efficiencies		
O=c1[nH]cc([C@@H]2O[C@H](COP(=O)(O)OP(=O)(O)OP(=O)(O)O)[C@@H](O)[C@H]2O)c(=O)[nH]1 [pseudouridine-5′-triphosphate]			the efficiency by which Syn5 RNA polymerase incorporated 5mC and Ps-U	T7 RNA polymerase also incorporates 5mC and Ps-U at comparable efficiencies
